From patent US5506147A, “Non-invasive evaluation of maldigestion and malaborption” (priority 1994, dated 1996)
“And” between values parts separate entries of the source, which are not always exact repeats. Equal values may be shown once.

Legend:
chymotrypsin [1] = assay: Bentiromide test with stable isotope PABA, serum PABA ratio by GC/MS (Pancreatic Ratio); format: in vivo, human
Experimental: The abundance of PABA and PABA isotope of the type administered to the patient in the 0-time sample is determined and compared to the abundance of PABA (from cleavage of bentiromide) and isotope PABA in the second sample. After adjustment for differences in the abundance of the identical quantities of PABA isotope used for standardization placed in the assay, the value of PABA in the 0-time sample is subtracted from the abundance of the PABA in the second sample (a like correction is also applied to the PABA isotope of the type administered) and a ratio of natural PABA to PABA isotope of the type administered is then determined. Individuals with a ratio greater than 0.32 are considered normal, individuals with a ratio of 0.28-0.32 are considered indeterminate, individuals with a ratio of less than 0.28 are considered abnormal.
Pancreatic and small bowel function were simultaneously evaluated using a gas chromatographic mass spectrometric (GC/MS) method on serum samples. In this method, xylose absorption was quantitated using [^13 C]1 -xylose, a stable isotope of xylose. Absorption of p-aminobenzoic acid (PABA), released from bentiromide by the action of endogenous chymotrypsin, was compared to the absorption of stable isotope PABA (^13 C6), administered orally simultaneously with bentiromide. The ratio (Pancreatic Ratio) of bentiromide PABA to stable isotope PABA in 60-minute sera samples was determined and expressed as a fraction and quantitated relative to added 2,6[^2 H]2 -PABA.
A person presented with diarrhea and hyperthyroidism and was also noted to have significant steatorrhea (63 g fat/24 hours). The patient was further evaluated with standard serum D-xylose testing, which was abnormal (13 mg/dl, nl 20-40). […] The patient then was given the above GC/MS test. A 0-time 10 ml blood sample was taken; 6.7 mg of bentiromide was administered along with 2.0 mg of stable isotope PABA and 5 g D-xylose, and 8 fl. oz of Resource. Sixty minutes later, 10 ml of blood was drawn. The sera after clotting was collected and the PABA, [^13 C]6 -PABA and xylose were purified and assayed by GC/MS.
At 0-time, a blood sample was taken from all patients in the amount of 10 ml, yielding 4-6 ml of serum, an aliquot of which was analyzed by GC/MS for PABA content.
Bentiromide in the amount of 6.7 mg and stable isotope PABA ([^13 C]6 -PABA) in the amount of 2 mg was administered to normal patients and patients with various pancreatic injuries after Internal Review Board approval. After an overnight fast (nothing by mouth after midnight except water or coffee with cream), a 0-time blood sample was drawn. The patients then drank 8 oz. of Resource followed immediately (within less than five minutes) by the test solution comprising 6.7 mg bentiromide, 2 mg stable isotope PABA, and 5 grams of D-xylose dissolved in 30 cc (1 oz.) of water. Sixty minutes later, 10 mls of blood were drawn and the subjects dismissed.
Serum collected one hour after the test meal was analyzed by GC/MS for the ratio of natural PABA to stable isotope PABA. The simultaneous administration of stable isotope PABA with bentiromide corrects for variations in gastric emptying, intestinal absorption, renal function and interfering substances in serum.
Bentiromide and stable isotope PABA were administered as set forth in Example 2 to four groups of patients designated A, B, C, and D on the X axis of FIG. 1. The ratio of labelled (i.e. stable isotope PABA) to bentiromide PABA in sera at 60 minutes is shown on the Y axis.
Several types of columns are used in this analysis and these include a strong anion exchange column (SAX), a strong cation exchange column (SCX), and a C18 column. The SAX and SCX columns are prepared in disposable plastic columns containing 50 mg of each resin. Prior to use, the column is prepared by a column volume of methanol followed by four washings with four column volumes of water. […]

chymotrypsin [2] = conditions: cited from earlier work
clinical = assay: clinical; design: species or system human; conditions: in vivo
Source text: Xylose is purified for detection by GC/MS by the process shown in Example 7. The purification process involves rapid deproteination and two-hour derivatization. The analysis involves the examination of one specific ion (M/Z 417) of one specific anomeric peak. Because of natural anomers and possibly incomplete derivatization of carbohydrates, xylose may show several peaks on GC/MS. It is necessary to use a peak providing a linear assay. In the present assay, using a ten-meter column, xylose elutes at 6.6 minutes when the temperature is ramped from 80°-300° C. using helium gas at a head pressure of 50 psi. A second smaller peak elutes at 6.7 minutes. […]
The xylose is also measured in the second fluid sample by GC/MS. […] A value less than or equal to about 2.5 mg/dl is read as abnormal.
Pancreatic and small bowel function were simultaneously evaluated using a gas chromatographic mass spectrometric (GC/MS) method on serum samples. In this method, xylose absorption was quantitated using [^13 C]1 -xylose, a stable isotope of xylose. […] The ratio (Pancreatic Ratio) of bentiromide PABA to stable isotope PABA in 60-minute sera samples was determined and expressed as a fraction and quantitated relative to added 2,6[^2 H]2 -PABA. […]
17. Place supernatant fluid into autosampler vial and examine by GC/MS using ^13 C1 -xylose as a standard for quantitation The derivatized xylose has four peaks. […]

[3] = human, in vivo, po
Experimental: The serum xylose test is one of the best non-invasive methods for diagnosing intestinal malabsorption. In this test, D-xylose, a five-carbon sugar not naturally present in the body or in foodstuffs, is given orally and an estimation of the increase in serum xylose content is carried out through colorimetric determination (CD) of non-glucose reducing sugars in serum. However, the test is occasionally misleading by giving both false positive and false negative results. Older xylose tests measured xylose in the urine. Problems with this test include the fact that the Roe and Rice method of D-xylose analysis is non-specific and cross-reacts partially with glucose. […] Furthermore, the test critically depends on complete emptying of the urinary bladder at five hours and on intact renal function.
An isotope dilution assay was developed for serum xylose using GC/MS to compare to the CD of serum xylose from a commercial diagnostic company to see if variations in the analysis itself may be a contributing cause to the misleading clinical results. Since GC/MS analysis relies on both column separation and mass identification, it is more specific for xylose determination than CD.

[4] = Alcoholic Pancreatitis (n = 4), serum one hour
[5] = Cystic Fibrosis (n = 16), serum one hour
[6] = Other Pancreatitis (n = 4), serum one hour

O=C(O)c1ccc(NC(=O)[C@H](Cc2ccc(O)cc2)NC(=O)c2ccccc2)cc1 [Bentiromide, N-benzoyl-L-tyrosyl-p-aminobenzoic acid]
Ratio in % of Natural PABA to Stable Isotope PABA (chymotrypsin [1]; [4]): 5 ± 6%
Ratio in % of Natural PABA to Stable Isotope PABA, range (chymotrypsin [1]; [4]): 0-14%
Ratio in % of Natural PABA to Stable Isotope PABA (chymotrypsin [1]; [5]): 4 ± 3%
Ratio in % of Natural PABA to Stable Isotope PABA, range (chymotrypsin [1]; [5]): 0-11%
PABA ratio in sera at 60 minutes, FIG. 1 (chymotrypsin [1]; Group B, cystic fibrosis): < 0.32
PABA ratio in sera at 60 minutes, FIG. 1 (in words) (chymotrypsin [1]; Group C, failed to improve on pancreatic supplementary enzymes): this entire Group C is normal
Ratio in % of Natural PABA to Stable Isotope PABA, range (chymotrypsin [1]; Normals (n = 38), serum one hour): 34-200%
Ratio in % of Natural PABA to Stable Isotope PABA (chymotrypsin [1]; Normals (n = 38), serum one hour after 6.7 mg bentiromide and 2 mg [^13 C]6 -PABA): 80 ± 20%
Ratio in % of Natural PABA to Stable Isotope PABA (chymotrypsin [1]; [6]): 7 ± 6%
Ratio in % of Natural PABA to Stable Isotope PABA, range (chymotrypsin [1]; [6]): 1-16%
Ratio in % of Natural PABA to Stable Isotope PABA (chymotrypsin [1]; Partial Pancreatectomy (n = 2), individual values, serum one hour): 2% and 37%
ratio of natural PABA to PABA isotope (chymotrypsin [1]; patients with documented pancreatic insufficiency, 60-minute samples): ≤ 0.18
Pancreatic Ratio (chymotrypsin [1]; person with steatorrhea, sixty minutes, 6.7 mg bentiromide, 2.0 mg stable isotope PABA, nl greater than 0.32): 0.06
plasma bentiromide test result in cystic fibrosis patients (chymotrypsin [2]): abnormally low

[2H]c1c([2H])c(C(=O)O)c([2H])c([2H])c1N [Example 12, 4-aminobenzoic-2,3,5,6-[^2 H]4]
back exchange (boiling water): lack of reaction in boiling water
decomposition (hot dilute acid): extensive decomposition in hot dilute acid

O=C[C@H](O)[C@@H](O)[C@H](O)CO [xylose, D-xylose]
concentration at 1 h (clinical; human, po): 150 µg/mL
xylose analysis, FIG. 4 (in words) (clinical): low
standard serum D-xylose testing [3]: 13 mg/dL
xylose content by CD, sera post xylose administration [3]: 3 to 52 mg/dL
